The values below come from patent US20140336196A1, “PHOSPHORIC ACID SALTS OF SITAGLIPTIN” (Merck Sharp & Dohme Corp., priority 2011, published 2014).

Molecules are shown by their SMILES. Counter-ions that a name gives are not always drawn.

This series can be described thus: Physical stability of the crystalline salt at elevated temperature and humidity. The format is physicochemical.

For the compound `N[C@@H](CC(=O)N1CCn2c(nnc2C(F)(F)F)C1)Cc1cc(F)c(F)cc1F` [Bis-[(2R)-4-oxo-4-[3-(trifluoromethyl)-5,6-dihydro[1,2,4]triazolo[4,3-a]pyrazin-7(8H)-yl]-1-(2,4,5-trifluorophenyl)butan-2-amine]phosphoric acid trihydrate salt], the “stability at elevated temperature and humidity” value (elevated temperature and humidity (general statement)) is given as “unexpectedly stable”. For the same compound, the physical stability result (solid crystalline salt, 40° C. at 75% relative humidity for 2 weeks) is given as “physically stable”.
